In patent publication US11999742B2, “Substituted pyrrolo[1,2-b]pyridazines as anthelmintics” (BOEHRINGER INGELHEIM VETMEDICA GMBH, priority 2021, dated 2024):

Key:
[1] = test system: Haemonchus contortus L1 larvae; experiment: Haemonchus contortus larval development L1 to L3, 4 days, dose response; details: 96 h, read-out: EC50, development of H. contortus larvae from L1 to L3
Excerpt: Biological Example 2: Screening Method to Test Activity of Compounds Against Haemonchus contortus

[2] = test system: Microfilaria of Dirofilaria immitis; experiment: Motility of Dirofilaria immitis microfilariae in microtiter plate, 3 days, dose response; type: cell-based; details: 72 h, read-out: EC50, motility of D. immitis microfilaria, three days at 37° C., 5% CO2, vs DMSO control
[3] = test system: L4 stage larvae of Dirofilaria immitis; experiment: Motility of L4 stage Dirofilaria immitis larvae, 3 days, dose response; type: cell-based; details: 72 h, read-out: EC50, motility of L4 stage D. immitis, three days at 37° C., 5% CO2, vs DMSO control

`Cc1cc2c(C(C)C)c(C(=O)N[C@H]3CCOc4ccccc43)cnn2c1-c1cc(F)cc(F)c1F` [Compound A513, N-[(4S)-3,4-dihydro-2H-1-benzopyran-4-yl]-6-methyl-4-(propan-2-yl)-7-(2,3,5-trifluorophenyl)pyrrolo[1,2-b]pyridazine-3-carboxamide] showed an EC50 [1] of 0.01 to 0.1 µM, an EC50 [2] of less than 0.01 µM and an EC50 [3] of less than 0.01 µM.
`CC(C)(C)c1c(C(=O)NN2CCOc3ccccc32)cnn2c(-c3cc(F)cc(Cl)c3Cl)c(Cl)cc12` [Compound A494] was tested, and the EC50 [1] was 0.01 to 0.1 µM, the EC50 [2] was 0.01 to 0.1 µM and the EC50 [3] was less than 0.01 µM.
Work on `Cc1cc2c(C(C)C)c(C(=O)N[C@H]3CCOc4ccccc43)cnn2c1-c1cc(Cl)cc(Cl)c1` [Compound A465, 7-(3,5-dichlorophenyl)-N-[(4S)-3,4-dihydro-2H-1-benzopyran-4-yl]-6-methyl-4-(propan-2-yl)pyrrolo[1,2-b]pyridazine-3-carboxamide] yielded an EC50 [1] of 0.01 to 0.1 µM, an EC50 [2] of 0.1 to 1 µM and an EC50 [3] of 0.01 to 0.1 µM.
With `Cc1cc2c(C(C)(C)C)c(C(=O)NN3CCOc4ccccc43)cnn2c1-c1cc(F)cc(Cl)c1Cl` [Compound A495] the EC50 [1] was less than 0.01 µM, the EC50 [2] was less than 0.01 µM and the EC50 [3] was less than 0.01 µM.
`Cc1cc2c(C(C)(C)C)c(C(=O)N[C@H]3CCCc4cc(Cl)ccc43)cnn2c1-c1cc(F)cc(Cl)c1Cl` [Compound A549] gave an EC50 [1] of 1 to 10 µM, an EC50 [2] of 0.1 to 1 µM and an EC50 [3] of 0.1 to 1 µM.
Compound `CC(C)(C)c1c(C(=O)NN2CCOc3ccccc32)cnn2c(-c3cc(Cl)cc(Cl)c3)c(Cl)cc12` [Compound A516] has an EC50 [1] of 0.01 to 0.1 µM, an EC50 [2] of less than 0.01 µM and an EC50 [3] of less than 0.01 µM.
`Cc1cc2c(C(C)(C)C)c(C(=O)N[C@H]3CCOc4ccc(F)cc43)cnn2c1-c1cc(F)cc(Cl)c1Cl` [Compound A488] was tested, and the EC50 [1] was 0.01 to 0.1 µM, the EC50 [2] was less than 0.01 µM and the EC50 [3] was 0.01 to 0.1 µM.
With `Cc1cc2c(C(C)(C)C)c(C(=O)N[C@H]3CCOc4ccccc43)cnn2c1N1CCCCC1` [Compound A524, 4-tert-butyl-N-[(4S)-3,4-dihydro-2H-1-benzopyran-4-yl]-6-methyl-7-(piperidin-1-yl)pyrrolo[1,2-b]pyridazine-3-carboxamide] the EC50 [1] was 0.1 to 1 µM, the EC50 [2] was 0.1 to 1 µM and the EC50 [3] was 0.1 to 1 µM.
For `Cc1cc2c(C(C)(C)C)c(C(=O)N[C@H]3CCc4cccnc43)cnn2c1-c1cc(F)cc(Cl)c1Cl` [Compound A544], the EC50 [1] was 0.1 to 1 µM, the EC50 [2] was 0.01 to 0.1 µM and the EC50 [3] was 0.1 to 1 µM.
`Cc1cc2c(C(C)(C)C)c(C(=O)N[C@H]3CCc4sccc43)cnn2c1-c1cc(F)cc(Cl)c1Cl` [Compound A553] gave an EC50 [1] of less than 0.01 µM, an EC50 [2] of less than 0.01 µM and an EC50 [3] of less than 0.01 µM.
`Cc1cc2c(N3CCOCC3)c(C(=O)N[C@H]3CCOc4ccccc43)cnn2c1-c1cc(Cl)cc(Cl)c1` [Compound A499] showed an EC50 [1] of 0.01 to 0.1 µM, an EC50 [2] of less than 0.01 µM and an EC50 [3] of less than 0.01 µM.
Work on `Cc1cc2c(C(C)(C)C)c(C(=O)N[C@H]3CCc4scnc43)cnn2c1-c1cc(F)cc(Cl)c1Cl` [Compound A540] yielded an EC50 [1] of 0.01 to 0.1 µM, an EC50 [2] of less than 0.01 µM and an EC50 [3] of 0.01 to 0.1 µM.
Compound `CC(C)(C)c1c(C(=O)N[C@H]2CCOc3ccccc32)cnn2c(-c3cc(Cl)cc(Cl)c3)c(C(F)(F)F)cc12` [Compound A483] has an EC50 [1] of 0.01 to 0.1 µM, an EC50 [2] of 0.01 to 0.1 µM and an EC50 [3] of less than 0.01 µM.
Work on `CC1(C)CN(c2c(C(=O)N[C@H]3CCOc4ccccc43)cnn3c(-c4cc(F)cc(Cl)c4Cl)c(Cl)cc23)C1` [Compound A567] yielded an EC50 [1] of 1 to 10 µM, an EC50 [2] of 1 to 10 µM and an EC50 [3] of 0.1 to 1 µM.
Work on `Cc1cc2c(C(C)(C)C)c(C(=O)N[C@H]3CCc4sc(Br)nc43)cnn2c1-c1cc(F)cc(Cl)c1Cl` [Compound A536a] yielded an EC50 [1] of 0.01 to 0.1 µM, an EC50 [2] of less than 0.01 µM and an EC50 [3] of 0.01 to 0.1 µM.
For `Cc1cc2c(N3CCOCC3)c(C(=O)N[C@H]3CCOc4ccccc43)cnn2c1-c1cc(Cl)cc(Cl)c1Cl` [Compound A501], the EC50 [1] was 0.01 to 0.1 µM, the EC50 [2] was less than 0.01 µM and the EC50 [3] was less than 0.01 µM.
For `CC(C)(C)c1c(C(=O)N[C@H]2CCOc3ccccc32)cnn2c(-c3cc(F)cc(F)c3F)c(Cl)cc12` [Compound A486], the EC50 [1] was less than 0.01 µM, the EC50 [2] was less than 0.01 µM and the EC50 [3] was less than 0.01 µM.
With `Cc1cc2c(C(C)(C)C)c(C(=O)N[C@H]3CCOc4ccccc43)cnn2c1-c1c(F)cc(F)cc1F` [Compound A476] the EC50 [1] was 0.01 to 0.1 µM, the EC50 [2] was 0.01 to 0.1 µM and the EC50 [3] was less than 0.01 µM.
With `Cc1cc2c(C(C)(C)C)c(C(=O)NC3CCCc4ncsc43)cnn2c1-c1cc(F)cc(Cl)c1Cl` (stereo not drawn) [Compound A533] the EC50 [1] was 0.1 to 1 µM, the EC50 [2] was 0.01 to 0.1 µM and the EC50 [3] was 0.1 to 1 µM.
With `Cc1cc2c(C(C)(C)C)c(C(=O)NN3CCOc4ccccc43)cnn2c1-c1cc(Cl)cc(Cl)c1` [Compound A482] the EC50 [1] was 0.1 to 1 µM, the EC50 [2] was 1 to 10 µM and the EC50 [3] was 0.01 to 0.1 µM.
`O=C(N[C@H]1CCOc2ccccc21)c1cnn2c(-c3cc(F)cc(Cl)c3Cl)c(Cl)cc2c1N1CC(F)(F)C1` [Compound A507] was tested, and the EC50 [1] was less than 0.01 µM, the EC50 [2] was less than 0.01 µM and the EC50 [3] was less than 0.01 µM.
With `Cc1cc2c(C(C)(C)C)c(C(=O)N[C@H]3CCc4ncccc43)cnn2c1-c1cc(F)cc(Cl)c1Cl` [Compound A559] the EC50 [1] was 0.01 to 0.1 µM, the EC50 [2] was 0.01 to 0.1 µM and the EC50 [3] was 0.01 to 0.1 µM.
In the case of `CN(C)c1c(C(=O)N[C@H]2CCOc3ccccc32)cnn2c(-c3cc(F)cc(Cl)c3Cl)c(Cl)cc12` [Compound A478], the EC50 [1] is reported as 0.01 to 0.1 µM, the EC50 [2] is reported as 0.01 to 0.1 µM and the EC50 [3] is reported as 0.1 to 1 µM.
For `Cc1cc2c(N3CC(C)(C)C3)c(C(=O)N[C@H]3CCOc4ccccc43)cnn2c1-c1cc(Cl)cc(Cl)c1Cl` [Compound A563], the EC50 [1] was 1 to 10 µM, the EC50 [2] was 1 to 10 µM and the EC50 [3] was 1 to 10 µM.
For `Cc1cc2c(C(C)(C)C)c(C(=O)N[C@H]3CCOc4ccccc43)cnn2c1-c1cc(F)cc(Cl)c1Cl` [Compound A481, 4-tert-butyl-7-(2,3-dichloro-5-fluorophenyl)-N-[(4S)-3,4-dihydro-2H-1-benzopyran-4-yl]-6-methylpyrrolo[1,2-b]pyridazine-3-carboxamide], the EC50 [1] was 0.01 to 0.1 µM, the EC50 [2] was 0.01 to 0.1 µM and the EC50 [3] was less than 0.01 µM.
Compound `CN(C)c1c(C(=O)N[C@H]2CCOc3ccccc32)cnn2c(-c3cc(Cl)cc(Cl)c3Cl)c(Cl)cc12` [Compound A473] has an EC50 [1] of less than 0.01 µM, an EC50 [2] of 0.01 to 0.1 µM and an EC50 [3] of less than 0.01 µM.
`CN(C)c1c(C(=O)N[C@H]2CCOc3ccccc32)cnn2c(-c3cc(F)cc(F)c3F)c(Cl)cc12` [Compound A474] was tested, and the EC50 [1] was 0.01 to 0.1 µM, the EC50 [2] was less than 0.01 µM and the EC50 [3] was less than 0.01 µM.
Work on `Cc1cc2c(C(C)(C)C)c(C(=O)N[C@H]3CCOc4ccccc43)cnn2c1N1C[C@H](C)C[C@H](C)C1` [Compound A528] yielded an EC50 [1] of 0.1 to 1 µM, an EC50 [2] of 0.01 to 0.1 µM and an EC50 [3] of 0.01 to 0.1 µM.
Work on `Cc1cc2c(C(C)(C)C)c(C(=O)N[C@H]3CCOc4scnc43)cnn2c1-c1cc(F)cc(Cl)c1Cl` [Compound A550] yielded an EC50 [1] of 0.01 to 0.1 µM, an EC50 [2] of 0.01 to 0.1 µM and an EC50 [3] of 0.01 to 0.1 µM.
For `Cc1cc2c(C(C)(C)C)c(C(=O)N[C@H]3CCOc4ccccc43)cnn2c1N1CCC(F)(F)CC1` [Compound A527], the EC50 [1] was 0.1 to 1 µM, the EC50 [2] was 0.1 to 1 µM and the EC50 [3] was 0.01 to 0.1 µM.
`CC(C)c1c(C(=O)NN2CCOc3ccccc32)cnn2c(-c3cc(F)cc(Cl)c3Cl)c(Cl)cc12` [Compound A496] gave an EC50 [1] of 0.01 to 0.1 µM, an EC50 [2] of less than 0.01 µM and an EC50 [3] of 0.01 to 0.1 µM.
With `Cc1cc2c(C(C)(C)C)c(C(=O)N[C@H]3CCc4ccccc43)cnn2c1-c1cc(F)cc(Cl)c1Cl` [Compound A558] the EC50 [1] was less than 0.01 µM, the EC50 [2] was less than 0.01 µM and the EC50 [3] was less than 0.01 µM.
`Cc1cc2c(C(C)(C)C)c(C(=O)N[C@H]3CCOc4ccccc43)cnn2c1-c1c(Cl)cc(F)cc1Cl` [Compound A487] was tested, and the EC50 [1] was 0.01 to 0.1 µM, the EC50 [2] was 0.01 to 0.1 µM and the EC50 [3] was less than 0.01 µM.
`Cc1cc2c(N3CC(F)(F)C3)c(C(=O)N[C@H]3CCOc4ccccc43)cnn2c1-c1cc(F)cc(Cl)c1Cl` [Compound A504] was tested, and the EC50 [1] was 0.01 to 0.1 µM, the EC50 [2] was less than 0.01 µM and the EC50 [3] was less than 0.01 µM.
`O=C(N[C@H]1CCOc2ccccc21)c1cnn2c(-c3cc(Cl)cc(Cl)c3Cl)c(Cl)cc2c1N1CC(F)(F)C1` [Compound A506] gave an EC50 [1] of 0.01 to 0.1 µM, an EC50 [2] of less than 0.01 µM and an EC50 [3] of less than 0.01 µM.
`CC(C)c1c(C(=O)N[C@H]2CCOc3ccccc32)cnn2c(-c3cc(F)cc(Cl)c3Cl)c(Cl)cc12` [Compound A523, 6-chloro-7-(2,3-dichloro-5-fluorophenyl)-N-[(4S)-3,4-dihydro-2H-1-benzopyran-4-yl]-4-(propan-2-yl)pyrrolo[1,2-b]pyridazine-3-carboxamide] gave an EC50 [1] of less than 0.01 µM, an EC50 [2] of less than 0.01 µM and an EC50 [3] of less than 0.01 µM.
`Cc1cc2c(C(C)(C)C)c(C(=O)N[C@H]3CCOc4ncsc43)cnn2c1-c1cc(F)cc(Cl)c1Cl` [Compound A551] was tested, and the EC50 [1] was 0.01 to 0.1 µM, the EC50 [2] was 0.01 to 0.1 µM and the EC50 [3] was 0.01 to 0.1 µM.
Work on `CC(C)(C)c1c(C(=O)N[C@H]2CCOc3ccccc32)cnn2c(-c3c(F)cc(F)cc3F)c(Cl)cc12` [Compound A484] yielded an EC50 [1] of less than 0.01 µM, an EC50 [2] of less than 0.01 µM and an EC50 [3] of less than 0.01 µM.
